From US10821117B2, “Estrogen therapy for brain gray matter atrophy and associated disability” (The Regents of the University of California, priority 2014, dated 2020)

Experiments:
[1] = set-up: species or system human; conditions: in vivo
Description: Safety assessments, including clinical, blood laboratory safety testing and assessments of estriol levels, occurred at months 0, 3, 6, 12, 18, and 24. On study blood tests included complete blood count (CBC) with differential and platelets; chemistry panel including sodium, potassium, creatinine, BUN, glucose, total protein, albumin, bilirubin (total), alkaline phosphatase, AST (SGOT), and ALT (SGPT), and lipid profile (HDL, LDL and triglycerides, cholesterol. Gynecologic exams were done at month 0, 6, 18 and at month 24 exit, with uterine ultrasounds at months 6, 18 and at month 24 exit. Mammograms were done in screening and at month 24 exit. Adverse event analysis was based on the percentage of patients who discontinued the study and the percentage of patients who discontinued the study possibly due to adverse events.
The rate of discontinuation was similar between groups (FIG. 1). A total of 60 patients (73.2%) in the Estriol plus GA group and 56 (73.7%) in the Placebo plus GA group completed the 24 month study treatment duration. Of the 158 patients, 15.8% discontinued the study during the first year (7.6% in the Estriol plus GA group and 8.2% in the Placebo plus GA group), and an additional 10.7% discontinued the study during the second year (6.3% and 4.4%, respectively). […] The most common reasons for discontinuation were lost to follow up or patient's decision based on family issues or time constraints.

[2] = test system: relapsing remitting multiple sclerosis patients; test: Delayed Recall Test, proportion with perfect score; format: in vivo, human
Description: The estriol and placebo subjects were administered the Delayed Recall Test periodically throughout the study. A perfect score on the test is 7, and for both treatment groups, the median score was also 7. Therefore, performance was assessed by the proportion of subjects in each group who achieved a perfect score on the test. […] Logistic regression for repeated measurement was used to compare the probability having a perfect score between the two treatment groups, adjusting for age, education level, and baseline recall (Table 9).

[3] = test system: relapsing remitting multiple sclerosis patients; test: Multiple Sclerosis Functional Composite (MSFC): PASAT3, 9-Hole Peg Test, 25-foot Walk Time; format: in vivo, human
Description: (§1) Secondary efficacy end points included the proportion of subjects with a relapse over all 24 months, a change in PASAT cognitive testing, a sustained improvement in PASAT cognitive testing (as defined by an increase of at least 3 points sustained over at least 6 months), a change in EDSS scores from baseline, disability progression (as defined by an increase in EDSS of at least 1.0 point in subjects with a baseline score of 1.0 or higher, or by an increase of at least a 1.5 points in subjects with a baseline score of 0, each sustained for at least 6 months). Tertiary end points included gray matter atrophy on MRI.
(§2) Linear mixed effects model was carried out to compare the percent change in whole gray matter and cortical gray matter between treatment groups. For the exploratory endpoints of EDSS, PASAT, and brain volume measures, linear mixed effects model was used to compare treatment groups at 12 and 24 months. Linear mixed effects model was carried out to evaluate the association between PASAT change and percent brain volume change.
Another clinical disability measure with treatment effects was the timed 25-foot walk test. This test measures how many seconds it takes to walk 25 feet, with higher scores indicating worse disability. […] This beneficial effect of estriol treatment on 25-foot walking times is consistent with the beneficial effect of estriol treatment on EDSS scores since the latter is weighted toward being an indicator of ambulation.
There were no significant differences between groups in the Multiple Sclerosis Functional Composite (MSFC), which reflects a composite of scores including the Paced Auditory Serial Addition Test (PASAT) for cognition, the 9 hole peg test and the 25 foot walk test (Table 4). However, an interesting effect of combination treatment was observed on cognitive disability. A perfect PASAT score is 60, with scores lower than 55 serving as a continuous variable for disability. […] After 12 months of treatment, patients receiving Copaxone® plus estriol continued to have high PASAT scores to the end of study at month 24, while participants receiving placebo began to show […] PASAT scores by month 24. […] This represents repair of disability, not merely prevention of worsening. This beneficial effect on PASAT scores at 12 months in the Estriol plus GA group could not be attributed to practice effects of repeated testing since the comparison was with the Placebo plus GA group tested at identical time points.

[4] = test system: relapsing remitting multiple sclerosis patients; test: Expanded Disability Status Scale (EDSS) change and disability progression; format: in vivo, human; conditions: for Proportion of pts with progression at 24 months % (95% CI): EDSS progression sustained at least 6 months, Kaplan-Meier; for EDSS change at 24 months (median): within group comparison vs baseline, negative values indicate improvement
Description: Standardized neurologic assessments, including an EDSS assessment, were performed at months 0, 3, 6, 12, 18 and 24, and at the time of a suspected relapse (as an additional unscheduled visit). EDSS assessments were performed by physicians who were trained either by in-person training or online (www.Neurostatus.net). MRI scans were obtained at screening and at months 0, 3, 6, 12 and 24. Subjects were seen or contacted every 3 months for compliance assessments and for dispensing medications.
as §1
For the time to first relapse analysis, Kaplan Meier curves and log-rank test were used to estimate and compare the relapse free probabilities of the two treatment groups. Cox proportional hazards model was used to compare the time to relapse free probabilities between two groups adjusting for covariates. The fixed effects include treatment groups (Estriol+GA vs Placebo+GA), baseline lesion number, age and baseline EDSS score. The random effect of subject is included in the model to account for within subject correlation.
as §2

[5] = test system: multiple sclerosis patients; test: Total (whole) brain gray matter volume change on brain MRI, SIENAX segmentation (Example 1); format: in vivo, human; conditions: over 24 months
Description: The effect of estriol treatment as compared to placebo treatment on total (whole) brain gray matter (GM) atrophy was assessed since gray matter atrophy is a surrogate marker for permanent disability in MS. […] The GM volume change from the month 0 scan to the month 12 scan and then the volume change from the month 0 scan to the month 24 scan was calculated.

[6] = first of two lines headed Month 24 (N = 70 / N = 60), positive value indicates worsening
[7] = positive value indicates improvement
[8] = positive value indicates worsening
[9] = second line headed Month 24 (N = 60 / N = 55), positive value indicates worsening

## glatiramer acetate [Placebo + GA]
[1]
  Adverse events leading to discontinuation - (%): (6%)
  Endometrial biopsies performed - (%): (8) %
  Endometrial thickness >8 mm (ultrasound) - (%): (36) %
  Fibrocystic disease on clinical exam, number: 4
  Fibrocystic disease on clinical exam, value in parentheses: (5)
  Fibroids (ultrasound) - (%): (11) %
  Mammogram with malignancy: 0
  Vaginal infection - no. of events: occurred more
[2]; Month 3
  Percentage of subjects achieving a perfect score on the Delayed Recall Test: 65.9 (48/74) %
[2]; Month 6
  Percentage of subjects achieving a perfect score on the Delayed Recall Test: 76.1 (54/71) %
[2]; Month 12
  Percentage of subjects achieving a perfect score on the Delayed Recall Test: 69.8 (44/63) %
[2]; Month 18
  Percentage of subjects achieving a perfect score on the Delayed Recall Test: 65.4 (36/55) %
[2]; Month 24
  Percentage of subjects achieving a perfect score on the Delayed Recall Test: 75.0 (42/56) %
[2]; logistic regression for repeated measurement, adjusted for age, education level, baseline recall
  Delayed Recall Test, Estimated perfect score rate (95% CI): 73.2 (65.7, 79.5) %
[3]; FIG. 7B
  PASAT score change at 12 months, within group comparison: no change
[3]; by 12 months of treatment
  PASAT scores improvement compared with baseline: no significant improvement
[3]; [6]
  25-foot Walk Time, Change from baseline at Month 24, Mean ± SD: 0.0 ± 0.9
  25-foot Walk Time, Change from baseline at Month 24, Median: 0.0
[3]; over the study, higher scores indicate worse disability
  timed 25-foot walk test, walk time: significantly increased
[3]; [7]
  MSFC Score, Change from baseline at Month 12, Mean ± SD: 0.06 ± 0.38
  MSFC Score, Change from baseline at Month 24, Mean ± SD: 0.09 ± 0.43
  PASAT3 score - All Patients, % change from baseline at Month 12, Mean ± SD: 0.8 ± 9.9%
  PASAT3 score - All Patients, % change from baseline at Month 12, Median: 0%
  PASAT3 score - All Patients, % change from baseline at Month 24, Mean ± SD: 2.7 ± 10.3%
  PASAT3 score - All Patients, % change from baseline at Month 24, Median: 0%
  PASAT3 score - All Patients, change from baseline at Month 12, Mean ± SD: 0.1 ± 4.5
  PASAT3 score - All Patients, change from baseline at Month 12, Median: 0
  PASAT3 score - All Patients, change from baseline at Month 24, Mean ± SD: 1.1 ± 4.3
  PASAT3 score - All Patients, change from baseline at Month 24, Median: 0
  PASAT3 score - Patients with baseline score <55, % change from baseline at Month 12, Mean ± SD: 4.0 ± 14.0%
  PASAT3 score - Patients with baseline score <55, % change from baseline at Month 12, Median: 3.8%
  PASAT3 score - Patients with baseline score <55, % change from baseline at Month 24, Mean ± SD: 6.9 ± 14.7%
  PASAT3 score - Patients with baseline score <55, % change from baseline at Month 24, Median: 9.1%
  PASAT3 score - Patients with baseline score <55, change from baseline at Month 12, Mean ± SD: 1.6 ± 6.0
  PASAT3 score - Patients with baseline score <55, change from baseline at Month 12, Median: 1.0
  PASAT3 score - Patients with baseline score <55, change from baseline at Month 24, Mean ± SD: 3.0 ± 5.9
  PASAT3 score - Patients with baseline score <55, change from baseline at Month 24, Median: 4.0
[3]; [8]
  9-Hole Peg Test, Change from baseline at Month 12, Mean ± SD: −0.1 ± 1.8
  9-Hole Peg Test, Change from baseline at Month 12, Median: −0.4
  9-Hole Peg Test, Change from baseline at Month 24, Mean ± SD: −0.4 ± 1.5
  9-Hole Peg Test, Change from baseline at Month 24, Median: −0.5
[3]; [9]
  25-foot Walk Time, Change from baseline at Month 24, Mean ± SD: 0.1 ± 1.1
  25-foot Walk Time, Change from baseline at Month 24, Median: 0.1
[4]
  Proportion of pts with progression at 24 months % (95% CI): 15.8 (8.8-27.6) %
  EDSS change at 24 months (median): 0
[4]; listed as Placebo plus GA
  Proportion of pts with progression at 24 months % (95% CI): 15.8%
  EDSS change at 24 months (median): stable and unchanged
[4]; FIG. 6
  EDSS scores over 24 months, slope: −0.01
[4]; listed as Copaxone® plus placebo
  EDSS change at 24 months (median): no change
[5]
  overall rate of GM atrophy: over 1.0 % per year
